# Assay results published in patent publication US10435408B2, “Azepine derivatives as 5-HT7 receptor modulators” (KOREA INSTITUTE OF SCIENCE AND TECHNOLOGY, priority 2016, dated 2019).
# Molecular target: Human gene recombinant 5-HT7 receptor (Homo sapiens (Human), UniProt P34969)
# Test: Measurement of binding affinity for serotonin 5-HT7 receptor ([3H]LSD radioligand binding)
# Conditions: [3H]LSD 1 nM, 5-HT7 receptor membrane from CHO cells; for inhibition at 10 µM: 10 μM compound; for Ki: nonlinear regression
# Protocol: Human gene recombinant 5-HT7 receptor expressed in Chinese hamster ovary (CHO) cells was used. [^3H]LSD 1 nM, the 5-HT7 receptor membrane (15 μg/well), each of the samples of Example 1-20 at various concentrations, 10 mM MgCl2, and 50 mM Tris-HCl buffer (pH 7.4) containing 0.1 mM EDTA were added to a vessel until the final volume reached 0.25 ml. The reaction mixture was incubated at 25° C. for 90 min. The incubated reaction mixture was rapidly passed through a Whatman GF/C glass fiber filter, which had been previously soaked with 0.3% polyethyleneimine, using a Brandel-Harvester to quench the reaction and washed with cold 50 mM Tris-HCl buffer. The filter was covered with MeltiLex, sealed in a sample bag, and dried in an oven. The radioactivity retained in the filter was counted using MicroBeta (Wallac). Non-specific binding was determined in the presence of 0.5 μM Mianserin.
# Chain of Human gene recombinant 5-HT7 receptor (P34969 whole entry): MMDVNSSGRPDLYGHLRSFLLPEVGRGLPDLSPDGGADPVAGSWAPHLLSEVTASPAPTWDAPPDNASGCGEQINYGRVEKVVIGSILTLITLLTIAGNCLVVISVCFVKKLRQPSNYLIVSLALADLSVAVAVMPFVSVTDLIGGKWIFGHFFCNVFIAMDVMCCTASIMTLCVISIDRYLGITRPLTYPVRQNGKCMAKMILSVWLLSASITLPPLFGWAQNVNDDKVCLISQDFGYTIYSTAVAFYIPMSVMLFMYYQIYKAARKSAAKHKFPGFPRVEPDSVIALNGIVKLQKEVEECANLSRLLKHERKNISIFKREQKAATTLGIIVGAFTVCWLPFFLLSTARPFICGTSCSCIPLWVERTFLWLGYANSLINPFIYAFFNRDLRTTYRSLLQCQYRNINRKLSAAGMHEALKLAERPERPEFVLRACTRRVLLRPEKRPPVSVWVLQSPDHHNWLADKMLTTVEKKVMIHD
Compound,inhibition at 10 µM [%],Ki [nM]
"Clc1ccccc1-c1n[nH]c2c1CCNCC2 [Example 4, 3-(2-chlorophenyl)-1,4,5,6,7,8-hexahydropyrazolo[3,4-d]azepine]",88.7,386
"Fc1ccccc1-c1n[nH]c2c1CCNCC2 [Example 2, 3-(2-fluorophenyl)-1,4,5,6,7,8-hexahydropyrazolo[3,4-d]azepine]",78.9,714
"Cc1cccc(-c2n[nH]c3c2CCNCC3)c1 [Example 8, 3-(m-tolyl)-1,4,5,6,7,8-hexahydropyrazolo[3,4-d]azepine]",63,1440
"Cc1ccccc1-c1n[nH]c2c1CCNCC2 [Example 7, 3-(o-tolyl)-1,4,5,6,7,8-hexahydropyrazolo[3,4-d]azepine]",68.5,881
"Cc1ccc(-c2n[nH]c3c2CCNCC3)cc1 [Example 9, 3-(p-tolyl)-1,4,5,6,7,8-hexahydropyrazolo[3,4-d]azepine]",94.2,47
"Fc1cccc(-c2n[nH]c3c2CCNCC3)c1 [Example 3, 3-(3-fluorophenyl)-1,4,5,6,7,8-hexahydropyrazolo[3,4-d]azepine]",72.9,1240
"Clc1cccc(-c2n[nH]c3c2CCNCC3)c1 [Example 5, 3-(3-chlorophenyl)-1,4,5,6,7,8-hexahydropyrazolo[3,4-d]azepine]",79.2,883
"Clc1ccc(-c2n[nH]c3c2CCNCC3)cc1 [Example 6, 3-(4-chlorophenyl)-1,4,5,6,7,8-hexahydropyrazolo[3,4-d]azepine]",96.4,30
"c1ccc(-c2noc3c2CCNCC3)cc1 [Example 10, 3-phenyl-5,6,7,8-tetrahydro-4H-isoxazolo[4,5-d]azepine]",84.3,319
"Fc1cccc(-c2noc3c2CCNCC3)c1 [Example 12, 3-(3-fluorophenyl)-5,6,7,8-tetrahydro-4H-isoxazolo[4,5-d]azepine]",57.5,1410
"Fc1ccccc1-c1noc2c1CCNCC2 [Example 11, 3-(2-fluorophenyl)-5,6,7,8-tetrahydro-4H-isoxazolo[4,5-d]azepine]",77.9,366
"c1ccc(-c2n[nH]c3c2CCNCC3)cc1 [Example 1, 3-phenyl-1,4,5,6,7,8-hexahydropyrazolo[3,4-d]azepine]",84.2,322

# Further lines, results first:
inhibition at 10 µM [%],Ki [nM],Compound
93.8,70,"Clc1ccc(-c2noc3c2CCNCC3)cc1 [Example 16, 3-(4-chlorophenyl)-5,6,7,8-tetrahydro-4H-isoxazolo[4,5-d]azepine]"
76.3,506,"Cc1cccc(-c2noc3c2CCNCC3)c1 [Example 18, 3-(m-tolyl)-5,6,7,8-tetrahydro-4H-isoxazolo[4,5-d]azepine]"
94.6,53,"Fc1ccc(-c2noc3c2CCNCC3)cc1 [Example 13, 3-(4-fluorophenyl)-5,6,7,8-tetrahydro-4H-isoxazolo[4,5-d]azepine]"
84.5,425,"Clc1ccccc1-c1noc2c1CCNCC2 [Example 14, 3-(2-chlorophenyl)-5,6,7,8-tetrahydro-4H-isoxazolo[4,5-d]azepine]"
41.8,,"Cc1ccccc1-c1noc2c1CCNCC2 [Example 17, 3-(o-tolyl)-5,6,7,8-tetrahydro-4H-isoxazolo[4,5-d]azepine]"
78.7,369,"Clc1cccc(-c2noc3c2CCNCC3)c1 [Example 15, 3-(3-chlorophenyl)-5,6,7,8-tetrahydro-4H-isoxazolo[4,5-d]azepine]"
96.3,16,"Cc1ccc(-c2noc3c2CCNCC3)cc1 [Example 19, 3-(p-tolyl)-5,6,7,8-tetrahydro-4H-isoxazolo[4,5-d]azepine]"
87.9,303,"COc1ccccc1-c1noc2c1CCNCC2 [Example 20, 3-(2-methoxyphenyl)-5,6,7,8-tetrahydro-4H-isoxazolo[4,5-d]azepine]"
